The subject of test [1] is C17-2 mouse brain neural stem cells. The test can be described thus: Cell proliferation of mouse brain neural stem cells (MTT, OD 490 nm). The note with it: for Cell proliferation %: control group = 100%; for promotion effects on cell proliferation of mouse brain neural stem cells: at doses of 0.1 μM and 1 μM. The class given is cell-based. As for the experimental part:
C17-2 mouse brain neural stem cells (C17-2 cells) were continuously cultured in 1640 medium with 10% horse serum and 10% fetal bovine serum at 5% CO2 and 37° C., dissociated to single cell suspension by 0.1% trypsin solution, centrifuged at 1,000 rpm×5 min and rinsed with medium. The cells were seeded in a 96-well plate, 1×10^3 cells per well, 3 well per group, continuously cultured. After 24 hours, the test compounds were added, doses of each of the C5-hydroxyl substituted clausenamides and N-substituted clausenamide derivatives were 0.1 μM, 1 μM and 10 μM respectively. The growth situation of the cells was observed under a microscope, once daily. At the 4th day, media in each well were pipetted, phosphate buffer solution containing MTT was added. 4 Hours later, the fluid was discarded, and a DMSO solution was added. The cells were incubated at 37° C. for 10 min under shaken. OD values on 490 nm of each well were detected. Set the growth rate of the control group as 100%, and the growth rates of each dose were given by comparison with the control group and t-tested.

Test [2] deals with rat hippocampus. The test can be described thus: LTP / synaptic transmission in rat hippocampus (population spike amplitude, dentate gyrus). The format is in vivo. Particulars: for Relative PS (PSA %): lateral ventricle, prior administration = 100; for effects on synaptic transmission: P<0.05 vs. control, n=5. The text has this: Male adult SD Rats (5 per group) were anesthetized with 20% (w/v) urethane carbamate (1.0 g·kg^−1, ip) and fixed in a stereotaxic head holder. According to the reference of Pellegrino stereotaxic spectrum of rat, recording electrodes (stainless steel needle of 0.2 mm diameter were insulted except for 0.2 mm tip) were placed in the dentate gyrus granule cell layer. The stimulating electrodes (two stainless steel needles of 0.15 mm diameter coated with Teflon except for the 0.2 mm tip, and the distance between two needles was 0.5 mm) were planted between the fibre of perforant path (PP) in rat. Continuous pulse was provided by electronic stimulator, and delivered to PP through stimulus isolator and stimulating electrodes. Electrode depth was then adjusted until a typical excitatory postsynaptic potential (EPSP) was observed. Electric current was magnified by amplifier and collected by computer, then processed by DataWave software. The stimulus intensity was adjusted to produce population spike (PS) with a slope that was ≈50% of the maximum. Single-pulse test stimuli were at an interval of 30 sec during the experiment. Population spike amplitude (PSA) was recorded and the relatively percent of PSA was calculated according to the formula (PSA/basic value).

[3] abbreviates: dose 10^−5 M, MTT at 4th day, OD 490 nm.
Setting [4] is: dose 10^−6 M, MTT at 4th day, OD 490 nm.
The mark [5] stands for this setting: dose 10^−7 M, MTT at 4th day, OD 490 nm.

`NC(=O)CN1C(=O)C(O)C(c2ccccc2)C1C(O)c1ccccc1` (racemic) [(±)III1, N-(aminocarbonyl-methylene)-norclausenamide]: the “Result (OD value)” value is 0.104 ± 0.009 in test [1] (setting [3]), 0.205 ± 0.006 in test [1] (setting [4]) and 0.240 ± 0.017 in test [1] (setting [5]). Besides, the values for the Cell proliferation % in test [1] (dose 10^−5 M), in test [1] (dose 10^−6 M) and in test [1] (dose 10^−7 M) were 75.91%, 149.64% and 175.18%, respectively. Besides, the “Relative PS (PSA %)” value in test [2] (15 min after administration) is given as 85.24 ± 17.41%; in test [2] (30 min after administration), 79.82 ± 22.33%; in test [2] (45 min after administration), 96.00 ± 19.78%; in test [2] (60 min after administration), 117.37 ± 13.49%.
In the case of `O=C(O)CN1C(=O)C(O)C(c2ccccc2)C1C(O)c1ccccc1` (racemic) [(±)III2], the “Result (OD value)” value in test [1] (setting [3]) was 0.100 ± 0.018; in test [1] (setting [4]) it was 0.175 ± 0.006; in test [1] (setting [5]), 0.218 ± 0.012. Further, the Cell proliferation % in test [1] (dose 10^−5 M) was 72.99%; in test [1] (dose 10^−6 M) it was 127.74%; in test [1] (dose 10^−7 M) it was 159.12%. Also, the “Relative PS (PSA %)” value in test [2] (15 min after administration) was 99.41 ± 9.27%; in test [2] (30 min after administration), 117.34 ± 14.74%; in test [2] (45 min after administration), 140.2 ± 10.96 %; in test [2] (60 min after administration) it was 153.36 ± 13.23 %.
Take `CC(=O)OCN1C(=O)C(O)C(c2ccccc2)C1C(O)c1ccccc1` (racemic) [(±)III3, N-acetoxymethylene-norclausenamide]: the “effects on synaptic transmission” value in test [2] was “significantly upstanding effects”.
In the case of `Cc1cccc(C)c1NC(=O)CN1C(=O)C(O)C(c2ccccc2)C1C(O)c1ccccc1` (racemic) [(±)III5], in test [1], the “effects on cell proliferation of mouse brain neural stem cells (conclusion)” value is “significant effects”. Also, the “promotion effects on cell proliferation of mouse brain neural stem cells” value in test [1] was “significant promotion effects”. Also, the “Result (OD value)” value in test [1] (setting [3]) is reported as 0.171 ± 0.035; in test [1] (setting [4]) it was 0.227 ± 0.011; in test [1] (setting [5]) it was 0.304 ± 0.051. Besides, the Cell proliferation % in test [1] (dose 10^−5 M) worked out at 124.82%; in test [1] (dose 10^−6 M), 165.69%; in test [1] (dose 10^−7 M) it was 221.90%. For the same molecule, the “Relative PS (PSA %)” value in test [2] (15 min after administration) is 87.51 ± 19.57%; in test [2] (30 min after administration) it was 97.43 ± 32.15%; in test [2] (45 min after administration) it was 111.47 ± 46.02%; in test [2] (60 min after administration), 137.15 ± 57.17%.
As to `O=C1C(O)C(c2ccccc2)C(C(O)c2ccccc2)N1Cc1ccccc1` (racemic) [(±)III8], the figures for the “Result (OD value)” value in test [1] (setting [3]), in test [1] (setting [4]) and in test [1] (setting [5]) were 0.096 ± 0.022, 0.144 ± 0.038 and 0.221 ± 0.043, respectively. In addition, the figures for the Cell proliferation % in test [1] (dose 10^−5 M), in test [1] (dose 10^−6 M) and in test [1] (dose 10^−7 M) were 70.07%, 105.11% and 161.31%, respectively. Moreover, the “Relative PS (PSA %)” value in test [2] (15 min after administration) was 67.75 ± 26.84%; in test [2] (30 min after administration), 68.48 ± 21.15%; in test [2] (45 min after administration), 79.25 ± 16.62%; in test [2] (60 min after administration) it was 98.97 ± 14.26%.
Consider `COc1ccc(CN2C(=O)C(O)C(c3ccccc3)C2C(O)c2ccccc2)cc1` (racemic) [(±)III9], for which the “Result (OD value)” value in test [1] (setting [3]) came out at 0.120 ± 0.027; in test [1] (setting [4]) it was 0.138 ± 0.012; in test [1] (setting [5]) it was 0.212 ± 0.011. The Cell proliferation % in test [1] (dose 10^−5 M) was 87.59%; in test [1] (dose 10^−6 M) it was 100.73%; in test [1] (dose 10^−7 M), 154.74%. Further, the “Relative PS (PSA %)” value in test [2] (15 min after administration) worked out at 115.6 ± 17.94%; in test [2] (30 min after administration) it was 107.18 ± 20.09%; in test [2] (45 min after administration), 103.77 ± 15.36%; in test [2] (60 min after administration) it was 112.72 ± 8.95%.
In the case of `CN1C(=O)C(O)C(c2ccccc2)C1=Cc1ccccc1` (single isomer, unassigned) [(−)Δ^5,6-I, (−)-Δ^5,6-clausenamide], the “Result (OD value)” value in test [1] (setting [3]) came to 0.076 ± 0.016; in test [1] (setting [4]), 0.165 ± 0.011; in test [1] (setting [5]), 0.246 ± 0.005. Besides, the Cell proliferation % in test [1] (dose 10^−5 M) turned out to be 55.47%; in test [1] (dose 10^−6 M), 120.44%; in test [1] (dose 10^−7 M) it was 179.56%. Further, the “Relative PS (PSA %)” value was determined as 123.37 ± 14.80% in test [2] (15 min after administration), 138.79 ± 10.94 % in test [2] (30 min after administration), 158.89 ± 23.04 % in test [2] (45 min after administration) and 181.50 ± 35.88 % in test [2] (60 min after administration). In test [2], the “effects on synaptic transmission” value is recorded as “significantly upstanding effects”.
As to `CC(=O)OCN1C(=O)C(O)C(c2ccccc2)C1C(O)c1ccccc1` (single isomer, unassigned; (-)) [(−)III3, N-acetoxymethylene-norclausenamide], the “Result (OD value)” value in test [1] (setting [3]) stood at 0.061 ± 0.007; in test [1] (setting [4]), 0.147 ± 0.021; in test [1] (setting [5]) it was 0.217 ± 0.024. Moreover, the figures for the Cell proliferation % in test [1] (dose 10^−5 M), in test [1] (dose 10^−6 M) and in test [1] (dose 10^−7 M) were 44.53%, 107.30% and 158.39%, respectively. Moreover, the “Relative PS (PSA %)” value is recorded as 90.33 ± 16.11% in test [2] (15 min after administration), 100.15 ± 7.48% in test [2] (30 min after administration), 118.33 ± 25.07% in test [2] (45 min after administration) and 141.37 ± 30.83% in test [2] (60 min after administration).
In the case of `CN1C(=O)[C@@H](O)[C@H](c2ccccc2)[C@]1(O)[C@H](O)c1ccccc1` [(+)II1, (+)-(3S,4S,5S,6R)-5-hydroxy-clausenamide], the “Result (OD value)” value stood at 0.093 ± 0.007 in test [1] (setting [3]), 0.264 ± 0.036 in test [1] (setting [4]) and 0.250 ± 0.016 in test [1] (setting [5]). The Cell proliferation % in test [1] (dose 10^−5 M) amounted to 67.88%; in test [1] (dose 10^−6 M) it was 192.70%; in test [1] (dose 10^−7 M), 182.48%. For the same molecule, the “Relative PS (PSA %)” value in test [2] (15 min after administration) stood at 144.86 ± 49.53%; in test [2] (30 min after administration), 168.02 ± 49.16%; in test [2] (45 min after administration), 194.32 ± 56.65 %; in test [2] (60 min after administration) it was 233.24 ± 55.62 %. In test [2], the “effects on synaptic transmission” value is given as “significantly upstanding effects”.
Consider `CN1C(=O)[C@@H](O)[C@H](c2ccccc2)[C@@]1(O)[C@@H](O)c1ccccc1` [(+)II2, (+)-(3S,4S,5R,6S)-5-hydroxy-clausenamide], for which the “Result (OD value)” value in test [1] (setting [3]) amounted to 0.076 ± 0.008; in test [1] (setting [4]), 0.220 ± 0.023; in test [1] (setting [5]) it was 0.175 ± 0.059. Also, the Cell proliferation % in test [1] (dose 10^−5 M) was 55.47%; in test [1] (dose 10^−6 M), 160.58%; in test [1] (dose 10^−7 M) it was 127.74%. Further, the “Relative PS (PSA %)” value came out at 81.48 ± 6.13% in test [2] (15 min after administration), 77.33 ± 8.93% in test [2] (30 min after administration), 82.56 ± 1.87% in test [2] (45 min after administration) and 99.92 ± 6.26% in test [2] (60 min after administration).
For the molecule `CN1C(=O)[C@H](O)[C@@H](c2ccccc2)[C@@]1(O)[C@@H](O)c1ccccc1` [(−)II1, (−)-(3R,4R,5R,6S)-5-hydroxy-clausenamide], the “effects on cell proliferation of mouse brain neural stem cells (conclusion)” value in test [1] is recorded as “significant effects”. Further, the “promotion effects on cell proliferation of mouse brain neural stem cells” value in test [1] was “significant promotion effects”. The “Result (OD value)” value is 0.126 ± 0.016 in test [1] (setting [3]), 0.236 ± 0.049 in test [1] (setting [4]) and 0.256 ± 0.020 in test [1] (setting [5]). Further, the figures for the Cell proliferation % in test [1] (dose 10^−5 M), in test [1] (dose 10^−6 M) and in test [1] (dose 10^−7 M) were 91.97%, 172.26% and 186.86%, respectively.
Turning to “fibroblast growth factor [FGF, reference compound]”, in test [1] (positive control, dose 5 mg/L), the “Result (OD value)” value came to 0.340 ± 0.035 and the Cell proliferation % is 248.17%.

Values taken from US20060167276A1, “Clausenamide c5-hydroxyl derivatives and n-substituted derivatives, processes for their preparation, its composition and use” (priority 2002, published 2006).
